In patent US11266668B2, “Dietary supplement for glycemia control and diabetes prevention” (WORLD PHARMACEUTICAL TECHNOLOGY, LLC., priority 2018, dated 2022) one finds clinically tolerable dose and blood glucose level data, which are given here for two compounds.

For data set [1] the following is noted: clinical phase I dose-escalation trial; cited from earlier work.
A further data set has as its system Sprague-Dawley (SD) rats. Briefly: sucrose loading test (postprandial blood glucose after sucrose gavage). The data set is classed as in vivo, rat. To be noted: male SD rats, sucrose 2.0 g/kg gavage, 5 mg/kg. On the procedure:
The inhibitory effect of Example Formula 1 and Example Formula 2 (see Table 1 and Table 2) on postprandial hyperglycemia after carbohydrate loading in Sprague-Dawley (SD) rats was assessed. All animal studies were performed according to the Act on Welfare and Management of Animals law—Act No. 105 of Oct. 1, 1973. Six week-old male SD rats were utilized and fed a solid diet for one week. Rats were housed five per cage in a room with a 12:12 hour light:dark cycle and an ambient temperature of 22-25° C. After 4 groups (n=5) were fasted for one day, 2.0 g/kg of sucrose were gavaged concurrently with Example Formula 1 (200 and 400 mg/kg) (e.g., provided at 200 or 400 mg total weight of Example Formula 1 per 1 Kg of the testing subject or patient) or 5 mg/kg Acarbose. The blood samples were collected from the tail after treatment and blood glucose concentrations were determined at 0, 0.5, 1, and 2 hours by utilizing glucose oxidase method. FIG. 1 and FIG. 2 show the effect of different dosage of Example Formula 1 or Example Formula 2 on sucrose loading test. After fasting for one day, 7-week-old, male SD rats were gavaged with sucrose solution (2.0 g/kg) with or without (the Control sample) Example Formula 1 or Example Formula 2. Acarbose was utilized as a positive control. Each point in the drawing represents mean±SD. (n=5). *p<0.05, **p<0.01 versus their corresponding controls at the same time points by unpaired Student's t-test. After fasting for one day, 7-week-old, male SD rats were gavaged with sucrose solution (2.0 g/kg) with or without the Comparative Example Formula 1. Acarbose was used as a positive control. Each point represents mean±SD. (n=5). *p<0.05, **p<0.01 versus their corresponding controls at the same time points by unpaired Student's t-test. Table 4 below lists the blood glucose level of rats under different dosage of Example Formula 1 and Comparative Example Formula 1 on sucrose loading test (unit: mM). The procedure is as described above. After fasting for one day, 7-week-old, male SD rats were gavaged with sucrose solution (2.0 g/kg) with or without Example Formula 1 or Comparative Example Formula 1. Acarbose was used as a positive control. Each point represents mean±SD. (n=5). *p<0.05, **p<0.01 versus their corresponding controls at the same time points by unpaired Student's t-test.

Each structure is given as a SMILES string. Marks after values point to notes of the source that are not given here.

As for `O=CC[C@@H](O)[C@H](O)[C@H](O)CO` [2-deoxy-D-glucose], the clinically tolerable dose in data set [1] is reported as 63 mg/kg.
With `C[C@H]1O[C@H](O[C@H]2[C@H](O)[C@@H](O)[C@@H](O[C@H]3[C@H](O)[C@@H](O)C(O)O[C@@H]3CO)O[C@@H]2CO)[C@H](O)[C@@H](O)[C@@H]1N[C@H]1C=C(CO)[C@@H](O)[C@H](O)[C@H]1O` (some centres unmarked) [Acarbose], the blood glucose level in the data set with Sprague-Dawley (SD) rats (time 0 hour) is given as 5.4 ± 0.2 mM; with Sprague-Dawley (SD) rats (time 0.5 hour) it was 6.5 ± 0.3** mM; in the data set on Sprague-Dawley (SD) rats (time 1 hour) it was 6.9 ± 0.4** mM; in the data set with Sprague-Dawley (SD) rats (time 2 hour), 6.5 ± 0.4 mM.
